In patent publication US6338296B1, “Release device for slowly releasing sprout inhibitor into packages of potatoes” (priority 1996, dated 2002):

System: potatoes
Test: sprout inhibition in a ventilated package of potatoes with a pouch of silica gel carrying 1,4-DMN
Assay type: in vivo, potato
Source text: A package containing ten pounds of potatoes (approximately 5 kg) can be treated according to the instant invention with about 5 grams of silica gel contacted with 2 grams of 1,4-DMN. The substantially saturated silica gel may be placed in a pouch made of cotton fabric having a tight weave. The weave is sufficiently tight that the minute, generally less than 0.5 mm and often less than 0.2 mm, particles are retained in the fabric pouch.
The potatoes, in a plastic bag with numerous ventilation holes, may be allowed to be in a storage room without air conditioning. A single pouch may be placed in the bag with the potatoes.
For example, amounts of DMN from about 0.02 gram to about 1.0 gram per pound of potatoes (˜0.5 kg) may be effectively used. For various reasons, lower amounts are desirable, consistent with effectiveness for the amount of potatoes, volume of voids, length of residence time of the potatoes in the package and range of temperatures to be experienced.

## Cc1ccc(C)c2ccccc12 [1,4-DMN, 1,4-dimethyl naphthalene]
0.2 grams of 1,4-DMN per one pound (~0.5 kg) of potatoes
  preclusion of sprouting: adequately precludes sprouting
Ten pounds of potatoes in ventilated plastic bag, one cotton pouch with about 5 grams silica gel and 2 grams 1,4-DMN, unconditioned store room, 30 days
  sprouting after 30 days: No significant sprouting
